Results from EP1087941B9, “THIOLESTERS AND USES THEREOF” (THE UNITED STATES OF AMERICA, as represented by THE …, priority 1998, dated 1999).
Read-outs that look alike come from different tables or passages of the source.

Columns and labels:
HIV-1 virus = assay: Virus inactivation determined by PCR assay for intracellularly synthesized viral RNA; format: cell-based
Excerpt: The thiolester-treated virions can also be tested for infectivity. The virions are suspended in media (rather than solubilized) and added to target cells. The cultures are then examined to determine whether the virions are still active. To determine whether the treated virus particles are active, the cells are monitored for the presence of intracellularly-synthesized viral RNA using, for example, the polymerase chain reaction (PCR) (Rice (1993) Proc. Natl. Acad. Sci. USA 90:9721; Turpin (1996) J. Virol. 70:6180). Alternatively, cytoprotection assays can be used (Weislow (1993) J. Natl. Cancer Inst. 81:577).
An example of a compound which can be used as a control in the gel mobility shift assay is azodicarbonamide (ADA), a compound which is commercially available from the Aldrich Chemical Company (Milwaukee, WI).

[1] = biological target: T1, Virion-associated NCp7 proteins from cell-free HIV-1MN (Human immunodeficiency virus type 1 group M subtype B, UniProt P05888); assay: Intravirion NCp7 cross-linking, non-reducing Western blotting
T1 construct: an attack on the mature NCp7 retroviral zinc fingers in the cell-free virus; endogenous in cells
Protocol: The interaction of zinc finger inhibitors, such as the thiolesters of the invention, with cell-free virus can result in modification of intravirion NCp7 protein and loss of infectivity. Virion-associated NCp7 proteins from cell-free HIV-1MN were treated with thiolester compounds 44 and 45. They were also evaluated by non-reducing Western blotting using HIV-1 NCp7-specific antibodies. […] Cross-linking by compound 45 was due to formation of intermolecular disulfide bonds because reduction with 2-mercaptoethanol (β-ME) completely reversed the gel retardation.
Virion cross linking was performed as described by Rice (1995) Science 270:1194-1197 and Turpin (1997) Antiviral Chem. Chemother. 8:60-67. Briefly, highly purified HIV-1 MN (11.8 µg total protein) was incubated for 2 hour with concentrations of compound. Virions were concentrated and residual compound was removed by centrifugation (18,000 x g, 1 h, 4°C). The viral pellet was solubilized in 0.5 M Tris-HCl,(pH 6.8), 50% glycerol, 8% SDS and 0.4% bromophenol blue and proteins resolved by Western blotting. Western blotting to detect the expression of HIV-1 proteins in U1 cells or virus pellets for virion cross-linking experiments was carried out as described by Turpin (1996) J. Virol. 70:6180-6189. Briefly, 50 µg of total cellular protein for U1 experiments or the total virion pellet (11.8 µg total viral protein) for NCp7 cross linking studies was resolved on 4 to 20% polyacrylamide gels in SDS with Tris-Glycine (Novex, San Diego CA). Samples for reduced gels were boiled for 5 min in the presence of 5% β-ME prior to loading. Resolved proteins were electroblotted on to polyvinylidene difluoride (PVDF) membranes, and HIV-1 specific proteins were detected using a mixture of goat anti- HIV-1 NCp7 and p24 or anti-NCp7 for virion proteins alone (a kind gift of L. E. Henderson, AIDS Vaccine Program NCI-FCRDC, Frederick, MD). Western blots were developed using standard chemiluminescence methodologies, as produced and described by Dupont-NEN, Wilmington, DE.
Purified concentrated retrovirus and antisera against the purified NC protein of the virus can be used to test the ability of a specific compound to penetrate the virus and react with the NC protein by forming disulfide complexes in the core of the virus. Compound are mixed with the whole retrovirus under reaction conditions appropriate for the compound. The virus is then removed from the reagent by centrifugation and disrupted in, e.g., standard SDS-PAGE sample buffer with (reduced) and without (non-reduced) 2-mercaptoethanol. […] Thus, compounds of interest (i.e., those which cause cross-linking), including the thiolesters of the invention, reduce the amount of monomeric zinc finger protein detected.

[2] = biological target: T2, recombinant HIV-1 NCp7 protein (Human immunodeficiency virus type 1 group M subtype B, UniProt P03347); assay: Trp37 zinc finger fluorescence (zinc ejection) assay; format: biochemical; conditions: for Zinc Finger Reactivity RFU/ min: average decrease in relative fluorescence units over 30 min
T2 construct: within the nucleocapsid p7 (NCp7) protein portion of the polyprotein
Protocol: Zinc finger reactivity was measured using a Zn specific fluorochrome, TSQ, N-(6-methoxy-8-quinolyl) -p-toluenesulfonamide, assay or a Trp37 zinc finger fluorescence assay. Fluorescent measurements of the Trp37 residue in the C-terminal finger of recombinant HIV-1 NCp7 protein were performed as described by Rice (1995) Science 270:1194-1197; Rice (1997) Antimicrob. Agents Chemother. 41:419-426. Measurement of Zn ejection from both fingers was measured using the Zn-selective fluorchrome probe TSQ (Molecular Probes, Eugene OR) as described by Rice (1996) J. Med. Chem 39:3606-3616. Measurement of the ability of NCp7 to bind to a DNA oligomer, a 44 mer: […] (SEQ ID NO:1), analogous to the HIV-1 RNA packaging site was carried out as described by Huang (1998) J. Med. Chem. 41:1371-1381, see also, Rossio (1998) HIV Pathogenesis and Treatment: Keystone Symposium on Molecular and Cellular Biology, Abstract # 4082. Briefly, 50 nM NCp7 was treated with test compounds for 1 hour at RT in […] buffer containing 10% glycerol and 50 mM Tris-HCl (pH 7.5). Labeled oligomer (0.1 picomole, end labeled [^32P]) was added in an equal volume of buffer containing 10% glycerol, 50 mM Tris-HCl (pH 7.5), 400 mM KCl and 40 mM MgCl2. The reaction was continued for 15 min at room temperature, and a total of […] (or 1/4 of the total reaction volume) was separated on nondenaturing 4.5% polyacrylamide gels in 0.5X Tris-Borate electrophoresis buffer. NCp7-oligomer complexes were visualized by autoradiography.
Changes in the intrinsic fluorescence of aromatic protein moieties are commonly used to monitor a reaction which involves a change in protein conformation. In the present invention, fluorescence can be used to monitor the loss of metal ion from a zinc finger, e.g., the loss of zinc from a CCHC retroviral zinc finger protein, after contact with a thiolester of the invention. The intrinsic fluorescence of Trp 37 in the second zinc finger of HIV-1 NC protein has been used to monitor nucleic acid binding and conformation of the zinc finger complex (see, Summers (1992) supra).
Zinc ejection is measured by the ability of compounds to chemically attack the cysteines in purified NCp7 protein resulting in a loss of fluorescence due to the movement of the tryptophan 37 residue from an exposed to an internal position on the protein. Zinc ejection is measured and expressed as either percent decrease in total fluorescence or decrease in relative fluorescence units per min during a 30 min assay (RFU/min). A thiolester is considered within the scope of the invention if any amount of zinc ejection is detected. For example, compound 50 has a zinc ejection rate of 0.86 RFU/min.

CEM-SS cells = assay: cells; format: cell-based; conditions: Homo sapiens, CEM-SS
Excerpt: (§1) One exemplary means to determine antiviral activity is with CEM-SS cells and virus (e.g., HIV-1RF) (MOI = 0.01) using the XTT (2,3-bis[2-methoxy- 4-nitro-5-sulfophenyl] -5- [(phenylamino)carbonyl]-2H-tetrazolium hydroxide) cytoprotection assay, as described by Rice (1993) PNAS 90:9721-9724, and Rice (1997) Antimicrob. Agents Chemother. 41:419-426. Briefly, cells are infected with HIV-1RF (or other virus to be tested) in the presence of various dilutions of test compounds (thiolesters and controls). The cultures are incubated for seven days. During this time control cultures without protective compounds (i.e., compounds with anti-viral activity) replicate virus, induce syncytia, and result in about 90% cell death. The cell death is measured by XTT dye reduction. XTT is a soluble tetrazolimn dye that measures mitochondrial energy output, similar to MTT. Positive controls using dextran sulfate (an attachment inhibitor) or 3'-Azido -2'-3'-dideoxythymidine, AZT (a reverse transcriptase inhibitor) are added to each assay. Individual assays are done in duplicate using a sister plate method.
(§2) Effective antiviral concentrations providing 50% cytoprotection (EC50), and cellular growth inhibitory concentrations causing 50% cytotoxicity (IC50) are calculated.

HIV-1RF = assay: XTT cytoprotection assay (antiviral activity); format: cell-based
Excerpt: as §1, §2

[3] = read-out: Antiviral Activity IC50%
[4] = read-out: IC50 / cellular toxicity
[5] = Human immunodeficiency virus 1, read-out: Antiviral Activity EC50
[6] = read-out: Antiviral Activity IC50
[7] = Human immunodeficiency virus 1, read-out: Antiviral Activity EC50%

Structure (SMILES) | IC50 (CEM-SS cells; [3]) [µM] | Zinc Finger Reactivity RFU/ min ([2]; Table 6) [RFU/ min] | IC50 (CEM-SS cells; [6]) [µM] | EC50 (HIV-1RF; [7]) [µM] | other results
NC(=O)N=NC(N)=O [ADA, azodicarbonamide] | – | – | – | – | inactivation of HIV-1 virus (HIV-1 virus): inactivates HIV-1 virus
Cc1cn([C@H]2C[C@H](N=[N+]=[N-])[C@@H](CO)O2)c(=O)[nH]c1=O [AZT, 3'-Azido-2'-3'-dideoxythymidine, reference compound] | – | – | – | – | intravirion NCp7 cross-linking [1]: failed to cross-link NCp7
CC(=O)NS(=O)(=O)c1ccc(NC(=O)c2ccccc2SC(C)=O)cc1 [Compound 40] | 56.7 | – | – | – | Zinc Finger Reactivity RFU/ min ([2]; Table 5): 4.2 RFU/ min; IC50 (CEM-SS cells; [4]): ~50 µM; EC50 (HIV-1RF; [5]): 2.8 µM
CC(=O)NS(=O)(=O)c1ccc(NC(=O)c2ccccc2SC(=O)c2ccccc2)cc1 [Compound 41] | 45.7 | – | – | – | Zinc Finger Reactivity RFU/ min ([2]; Table 5): 2.2 RFU/ min; IC50 (CEM-SS cells; [4]): ~50 µM; EC50 (HIV-1RF; [5]): 2.6 µM
COc1ccc(C(=O)Sc2ccccc2C(=O)Nc2ccc(S(=O)(=O)NC(C)=O)cc2)cc1 [Compound 42] | 43.7 | – | – | – | Zinc Finger Reactivity RFU/ min ([2]; Table 5): 3.5 RFU/ min; IC50 (CEM-SS cells; [4]): ~50 µM; EC50 (HIV-1RF; [5]): 2.8 µM
O=C(CCCCBr)Sc1ccccc1C(=O)Nc1ccc(S(=O)(=O)c2ccc([N+](=O)[O-])cc2)cc1 [Compound 46] | – | 1 | 21.7 | 1.6 | –
NS(=O)(=O)c1ccc(CNC(=O)c2ccccc2SC(=O)CCCC[n+]2ccccc2)cc1 [Compound 48] | – | 1.4 | 55 | 1.1 | IC50 (CEM-SS cells; [4]): 55 µM
O=C(CCCCBr)Sc1ccccc1C(=O)Nc1ccc(S(=O)(=O)c2ccc(NS(=O)(=O)Cc3ccccc3[N+](=O)[O-])cc2)cc1 [Compound 49] | – | 1.9 | > 316 | > 316 | –
O=C(CCCC[n+]1ccccc1)Sc1ccccc1C(=O)Nc1ccc(S(=O)(=O)c2ccc(NS(=O)(=O)Cc3ccccc3[N+](=O)[O-])cc2)cc1 [Compound 50] | – | 0.86 | > 316 | 2.9 | zinc finger reactivity / zinc ejection rate [2]: 0.86 RFU/min
CC(=O)Nc1ccc(S(=O)(=O)c2ccc(NC(=O)c3ccccc3SC(=O)CCCC[n+]3ccccc3)cc2)cc1 [Compound 51] | – | 1.7 | 288 | 4.6 | –
CC(=O)Nc1cccc(S(=O)(=O)c2cccc(NC(=O)c3ccccc3SC(=O)CCCC[n+]3ccccc3)c2)c1 [Compound 52] | – | 1.1 | 205 | 4.9 | –
CC(=O)NS(=O)(=O)c1ccc(NC(=O)c2ccccc2SC(=O)CCC[n+]2ccccc2)cc1 [Compound 54] | 175 | – | – | 10.1 | Zinc Finger Reactivity RFU/ min ([2]; Table 10): 2.2 RFU/ min
CC(=O)NS(=O)(=O)c1ccc(NC(=O)c2ccccc2SC(=O)CCCCC[n+]2ccccc2)cc1 [Compound 55] | 69.7 | – | – | 10.5 | Zinc Finger Reactivity RFU/ min ([2]; Table 10): 1.9 RFU/ min
CC(=O)NS(=O)(=O)c1ccc(NC(=O)c2ccccc2NC(=O)CCCC[n+]2ccccc2)cc1 [Compound 56] | > 316 | – | – | > 316 | Zinc Finger Reactivity RFU/ min ([2]; Table 10): 2.6 RFU/ min; antiviral activity (HIV-1RF; result in words): inactive
CC(=O)NS(=O)(=O)c1ccc(NC(=O)c2ccccc2SC(=O)CCCC[n+]2cccc(Cl)c2)cc1 [Compound 57] | 264 | – | – | 54 | Zinc Finger Reactivity RFU/ min ([2]; Table 10): 0.2 RFU/ min
